Reference: US20060069132A1, “Azolecarboxamide herbicides” (priority 2004, published 2006)

Key:
rice [1] = assay: Test B flooded paddy test; type: in vivo, Oryza sativa; settings: 1000 g ai/ha, visual rating, scale 0 to 100 (0 no effect, 100 complete control), 13 to 15 days
In short: (§1)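 Formulated test chemicals went onto postemergence plants measuring 2 to 18 cm, at one to four leaves. For the paddy assay, species had reached two leaves. Scoring took place 13–15 days later by eye, relative to untreated plants, using 0 for no effect up to 100 for full control.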

barnyardgrass [2] = assay: Test C flooded paddy test; type: in vivo, Echinochloa crus-galli
In short: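 Weeds and wheat were sprayed after emergence, at a height of 2 to 18 cm (1–4 leaves), and paddy barnyardgrass was flooded and treated at two leaves. Assessment took place 12–14 days later in the greenhouse on a 0-to-100 visual control scale. A dash means no result was obtained.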

wheat = assay: Test B postemergence herbicide test; type: in vivo, Triticum aestivum; parameters: key to Wheat plant response rating: 0 = no effect, 100 = complete control; settings: postemergence, 500 g ai/ha; visual rating, scale 0 (no effect) to 100 (complete control)
In short: (§2)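 After treating 2-leaf paddy plants or 2–18 cm postemergence plants (1 to 4 leaves) with formulated chemical, researchers kept them in a greenhouse for 13–15 days. Effects were judged visually versus controls: 0 indicates none, 100 total control.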

lambsquarters = assay: Test B pre-/postemergence herbicide test; type: in vivo, Chenopodium album; settings: for Plant response rating, Lambsquarters: preemergence; for Lambsquarters plant response rating: postemergence, visual rating, scale 0 (no effect) to 100 (complete control)
In short: (§3)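 Plants compared with untreated controls 13–15 days post-treatment and given a visual 0–100 injury score. Applications: preemergence to seeds; postemergence at 1- to 4-leaf (2–18 cm); paddy species flooded, 2-leaf stage. Vehicle non-phytotoxic, surfactant included.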

Surinam grass = assay: Test B pre-/postemergence herbicide test; type: in vivo, Urochloa decumbens; settings: for Plant response rating, Surinam Grass: preemergence; for Surinam Grass plant response rating: postemergence, visual rating, scale 0 (no effect) to 100 (complete control)
In short: as §3

giant foxtail = assay: Test B pre-/postemergence herbicide test; type: in vivo, Setaria faberi; settings: for Plant response rating, Foxtail, Giant: preemergence; for Foxtail, Giant plant response rating: postemergence, visual rating, scale 0 (no effect) to 100 (complete control)
In short: as §3

rice [3] = assay: Test C flooded paddy test; type: in vivo, Oryza sativa
In short: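 Injury scored visually against controls on a 0 (no effect) to 100 (complete control) scale, 12 to 14 days after treatment in greenhouse. Flooded paddy plants treated at 2-leaf stage; postemergence plants at 1- to 4-leaf stage, 2 to 18 cm tall.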

ducksalad [4] = assay: Test C flooded paddy test; type: in vivo, Heteranthera limosa
corn = assay: Test B pre-/postemergence herbicide test; type: in vivo, Zea mays; settings: for Plant response rating, Corn: preemergence; for Corn plant response rating: postemergence, visual rating, scale 0 (no effect) to 100 (complete control)
In short: as §3

ducksalad [5] = assay: Test B flooded paddy test; type: in vivo, Heteranthera limosa; settings: 1000 g ai/ha, visual rating, scale 0 to 100 (0 no effect, 100 complete control), 13 to 15 days
In short: as §1

blackgrass = assay: Test B postemergence herbicide test; type: in vivo, Alopecurus myosuroides; settings: postemergence, visual rating, scale 0 (no effect) to 100 (complete control)
In short: as §1

[6] = tested on: smallflower umbrella sedge; assay: Test C flooded paddy test; type: in vivo, Cyperus difformis
pigweed = assay: Test B pre-/postemergence herbicide test; type: in vivo, Amaranthus retroflexus; settings: for Plant response rating, Pigweed: preemergence; for Pigweed plant response rating: postemergence, visual rating, scale 0 (no effect) to 100 (complete control)
In short: as §3

velvetleaf = assay: Test B pre-/postemergence herbicide test; type: in vivo, Abutilon theophrasti; settings: for Plant response rating, Velvetleaf: preemergence; for Velvetleaf plant response rating: postemergence, visual rating, scale 0 (no effect) to 100 (complete control)
In short: as §3

large crabgrass = assay: Test B pre-/postemergence herbicide test; type: in vivo, Digitaria sanguinalis; settings: for Plant response rating, Crabgrass, Large: preemergence; for Crabgrass, Large plant response rating: postemergence, visual rating, scale 0 (no effect) to 100 (complete control)
In short: as §3

rice [7] = assay: Test B pre-/postemergence herbicide test; type: in vivo, Oryza sativa; settings: preemergence
In short: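 Greenhouse pot assay with simultaneous preemergence (treated seed) and postemergence (2–18 cm seedlings) applications of surfactant-containing, non-phytotoxic solvent formulations. Response scored visually 13–15 days later on a 0–100 scale, 100 meaning complete control.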

morningglory = assay: Test B pre-/postemergence herbicide test; type: in vivo, Ipomoea coccinea; settings: for Plant response rating, Morningglory: preemergence; for Morningglory plant response rating: postemergence, visual rating, scale 0 (no effect) to 100 (complete control)
In short: as §3

wild oat = assay: Test B postemergence herbicide test; type: in vivo, Avena fatua; settings: postemergence, visual rating, scale 0 (no effect) to 100 (complete control)
In short: as §2

barnyardgrass [8] = assay: Test B pre-/postemergence herbicide test; type: in vivo, Echinochloa crus-galli; settings: for Plant response rating, Barnyardgrass: preemergence; for Barnyardgrass plant response rating: postemergence, visual rating, scale 0 (no effect) to 100 (complete control)
In short: as §3

cocklebur = assay: Test B pre-/postemergence herbicide test; type: in vivo, Xanthium strumarium; settings: for Plant response rating, Cocklebur: preemergence; for Cocklebur plant response rating: postemergence, visual rating, scale 0 (no effect) to 100 (complete control)
In short: as §3

barnyardgrass [9] = assay: Test B flooded paddy test; type: in vivo, Echinochloa crus-galli; settings: 1000 g ai/ha, visual rating, scale 0 to 100 (0 no effect, 100 complete control), 13 to 15 days
In short: as §1

[10] = tested on: small flower umbrella sedge; assay: Test B flooded paddy test; type: in vivo, Cyperus difformis; settings: 1000 g ai/ha, visual rating, scale 0 to 100 (0 no effect, 100 complete control), 13 to 15 days
In short: as §1

[11] = 62 g ai/ha, scale 0 to 100 (0 no effect, 100 complete control)
[12] = 250 g ai/ha, scale of 0 to 100, 0 is no effect, 100 is complete control
[13] = 500 g ai/ha, visual rating after 12 to 14 days, scale 0 to 100 (0 no effect, 100 complete control)
[14] = 500 g ai/ha, visual rating 0-100, 0 no effect, 100 complete control
[15] = 125 g ai/ha, 0 to 100 scale, 0 is no effect, 100 is complete control
[16] = 125 g ai/ha, scale 0 to 100 (0 no effect, 100 complete control)

CCn1nc(C(C)(C)C)cc1C(=O)Nc1cccc(C(=O)N(C)CC#N)n1 [Compound 158]
Rice plant response rating (rice [1]): 60
Barnyardgrass plant response rating (barnyardgrass [2]; [11]): 0
Barnyardgrass plant response rating (barnyardgrass [2]; 125 g ai/ha, scale of 0 to 100, 0 is no effect, 100 is complete control): 0
Barnyardgrass plant response rating (barnyardgrass [2]; [12]): 15
Plant response rating, Barnyardgrass (barnyardgrass [2]; [13]): 35
Wheat plant response rating (wheat): 10
Plant response rating, Lambsquarters (lambsquarters; [14]): 100
Lambsquarters plant response rating (lambsquarters; 125 g ai/ha): 80
Lambsquarters plant response rating (lambsquarters; 500 g ai/ha): 80
Plant response rating, Lambsquarters (lambsquarters; [15]): 70
Plant response rating, Surinam Grass (Surinam grass; [14]): 90
Surinam Grass plant response rating (Surinam grass; 125 g ai/ha): 0
Surinam Grass plant response rating (Surinam grass; 500 g ai/ha): 0
Plant response rating, Surinam Grass (Surinam grass; [15]): 30
Plant response rating, Foxtail, Giant (giant foxtail; [14]): 100
Foxtail, Giant plant response rating (giant foxtail; 125 g ai/ha): 0
Foxtail, Giant plant response rating (giant foxtail; 500 g ai/ha): 30
Plant response rating, Foxtail, Giant (giant foxtail; [15]): 50
Rice plant response rating (rice [3]; [11]): 0
Rice plant response rating (rice [3]; [16]): 0
Rice plant response rating (rice [3]; [12]): 35
Plant response rating, Rice (rice [3]; [13]): 60
Ducksalad plant response rating (ducksalad [4]; [11]): 0
Ducksalad plant response rating (ducksalad [4]; [16]): 0
Ducksalad plant response rating (ducksalad [4]; [12]): 20
Plant response rating, Ducksalad (ducksalad [4]; [13]): 50
Plant response rating, Corn (corn; [14]): 60
Corn plant response rating (corn; 125 g ai/ha): 0
Corn plant response rating (corn; 500 g ai/ha): 10
Plant response rating, Corn (corn; [15]): 0
Ducksalad plant response rating (ducksalad [5]): 90
Blackgrass plant response rating (blackgrass; 125 g ai/ha): 20
Blackgrass plant response rating (blackgrass; 500 g ai/ha): 30
Sedge, Umbrella plant response rating [6, 11]: 15
Sedge, Umbrella plant response rating [6, 16]: 45
Sedge, Umbrella plant response rating [6, 12]: 70
Plant response rating, Sedge, Umbrella [6, 13]: 80
Plant response rating, Pigweed (pigweed; [14]): 100
Pigweed plant response rating (pigweed; 125 g ai/ha): 50
Pigweed plant response rating (pigweed; 500 g ai/ha): 70
Plant response rating, Pigweed (pigweed; [15]): 100
Plant response rating, Velvetleaf (velvetleaf; [14]): 80
Velvetleaf plant response rating (velvetleaf; 125 g ai/ha): 50
Velvetleaf plant response rating (velvetleaf; 500 g ai/ha): 50
Plant response rating, Velvetleaf (velvetleaf; [15]): 50
Plant response rating, Crabgrass, Large (large crabgrass; [14]): 100
Crabgrass, Large plant response rating (large crabgrass; 125 g ai/ha): 30
Crabgrass, Large plant response rating (large crabgrass; 500 g ai/ha): 30
Plant response rating, Crabgrass, Large (large crabgrass; [15]): 80
Plant response rating, Rice (rice [7]; [14]): 90
Plant response rating, Rice (rice [7]; [15]): 80
Plant response rating, Morningglory (morningglory; [14]): 50
Morningglory plant response rating (morningglory; 125 g ai/ha): 0
Morningglory plant response rating (morningglory; 500 g ai/ha): 50
Plant response rating, Morningglory (morningglory; [15]): 50
Oat, Wild plant response rating (wild oat; 125 g ai/ha): 30
Oat, Wild plant response rating (wild oat; 500 g ai/ha): 40
Plant response rating, Barnyardgrass (barnyardgrass [8]; [14]): 100
Barnyardgrass plant response rating (barnyardgrass [8]; 125 g ai/ha): 0
Barnyardgrass plant response rating (barnyardgrass [8]; 500 g ai/ha): 0
Plant response rating, Barnyardgrass (barnyardgrass [8]; [15]): 70
Plant response rating, Cocklebur (cocklebur; [14]): 40
Cocklebur plant response rating (cocklebur; 125 g ai/ha): 20
Cocklebur plant response rating (cocklebur; 500 g ai/ha): 70
Plant response rating, Cocklebur (cocklebur; [15]): 40
Barnyardgrass plant response rating (barnyardgrass [9]): 70
Sedge, Umbrella plant response rating [10]: 80
